Patent US6465482B2, “Arylpiperazinyl-cyclohexyl indole derivatives for the treatment of depression” (Wyeth, priority 1999, dated 2002)
Where a name gives a salt, the structure may show the parent alone.

Row | SMILES | melting point
1 | Fc1cccc2[nH]cc([C@H]3CC[C@@H](N4CCN(c5cccc6[nH]ccc56)CC4)CC3)c12 (as salt: HCl) (hydrate or solvate) [Example 2a, 4-Fluoro-3-[cis-4-[4-(1H-indol-4-yl)-1-piperazinyl]cyclohexyl]-1H-indole] | 283 to 285 °C
2 | Clc1ccc2[nH]cc([C@H]3CC[C@@H](N4CCN(c5cccc6[nH]ccc56)CC4)CC3)c2c1 (as salt: HCl) (hydrate or solvate) [Example 6a, 5-Chloro-3-[cis-4-[4-(1H-indol-4-yl)-1-piperazinyl]cyclohexyl]-1H-indole] | 283 to 285 °C
3 | Clc1ccc2[nH]cc([C@H]3CC[C@H](N4CCN(c5cccc6[nH]ccc56)CC4)CC3)c2c1 (as salt: HCl) (hydrate or solvate) [Example 6b, 5-Chloro-3-[trans-4-[4-(1H-indol-4-yl)-1-piperazinyl]cyclohexyl]-1H-indole] | 314 to 315.5 °C
4 | COc1ccc2[nH]cc([C@H]3CC[C@@H](N4CCN(c5cccc6[nH]ccc56)CC4)CC3)c2c1 (as salt: HCl) (hydrate or solvate) [Example 8a, 5-Methoxy-3-[cis-4-[4-(1H-indol-4-yl)-1-piperazinyl]cyclohexyl]-1H-indole] | 283 to 285 °C
5 | COc1ccc2[nH]cc([C@H]3CC[C@H](N4CCN(c5cccc6[nH]ccc56)CC4)CC3)c2c1 (as salt: HCl) (hydrate or solvate) [Example 8b, 5-Methoxy-3-[trans-4-[4-(1H-indol-4-yl)-1-piperazinyl]cyclohexyl]-1H-indole] | 194 to 196 °C
6 | Cn1ccc2c(N3CCN([C@H]4CC[C@@H](c5cn(C)c6cc(F)ccc65)CC4)CC3)cccc21 (as salt: HCl) (hydrate or solvate) [Example 11, 6-Fluoro-1-methyl-3-{cis-4-[4-(1-methyl-1H-indol-4-yl)-1-piperazinyl]cyclohexyl}-1H-indole] | 253 to 254 °C
7 | Cn1cc([C@H]2CC[C@@H](N3CCN(c4cccc5[nH]ccc45)CC3)CC2)c2cc(C#N)ccc21 (as salt: HCl) (hydrate or solvate) [Example 12a, 3-{(1,4-cis)-4-[4-(1H-indol-4-yl)-piperazin-1-yl]-cyclohexyl}-1-methyl-1H-indole-5-carbonitrile] | 285.5 to 288 °C
8 | Cn1cc([C@H]2CC[C@H](N3CCN(c4cccc5[nH]ccc45)CC3)CC2)c2cc(C#N)ccc21 (as salt: HCl) (hydrate or solvate) [Example 12b, 3-{(1,4-trans)-4-[4-(1H-indol-4-yl)-piperazin-1-yl]-cyclohexyl}-1-methyl-1H-indole-5-carbonitrile] | 286 to 288 °C
9 | CCn1cc([C@H]2CC[C@@H](N3CCN(c4cccc5[nH]ccc45)CC3)CC2)c2cc(C#N)ccc21 (as salt: HCl) (hydrate or solvate) [Example 13a, 1-Ethyl-3-{(1,4-cis)-4-[4-(1H-indol-4-yl)-piperazin-1-yl]-cyclohexyl}-1H-indole-5-carbonitrile] | 245 °C
10 | CCCn1cc([C@H]2CC[C@@H](N3CCN(c4cccc5[nH]ccc45)CC3)CC2)c2cc(C#N)ccc21 (as salt: HCl) (hydrate or solvate) [Example 14a, 3-{(1,4-cis)-4-[4-(1H-Indol-4-yl)-piperazin-1-yl]-cyclohexyl}-1-propyl-1H-indole-5-carbonitrile] | 200 to 206 °C
11 | CC(C)n1cc([C@H]2CC[C@@H](N3CCN(c4cccc5[nH]ccc45)CC3)CC2)c2cc(C#N)ccc21 (as salt: HCl) (hydrate or solvate) [Example 15a, 3-{(1,4-cis)-4-[4-(1H-indol-4-yl)-piperazin-1-yl]-cyclohexyl}-1-isopropyl-1H-indole-5-carbonitrile] | 285 to 286 °C
12 | Cn1cc([C@H]2CC[C@@H](N3CCN(c4cccc5cccnc45)CC3)CC2)c2cc(F)ccc21 (as salt: HCl) (hydrate or solvate) [Example 28, 8-{4-(1,4-cis)-4-[4-(5-Fluoro-1-methyl-1H-indol-3-yl)-cyclohexyl]-piperazin-1-yl}-quinoline] | 261 to 263.5 °C
13 | Fc1cc2c(c(N3CCN([C@H]4CC[C@H](c5c[nH]c6ccc(F)cc65)CC4)CC3)c1)OCCC2 (as salt: HCl) (hydrate or solvate) [Example 31b, 5-Fluoro-3-{(1,4-trans)-4-[4-(6-fluoro-chroman-8-yl)-piperazin-1-yl]-cyclohexyl}-1H-indole] | 286 to 288 °C
14 | Fc1cc2c(c(N3CCN([C@H]4CC[C@@H](c5c[nH]c6ccc(F)cc65)CC4)CC3)c1)OCC2 (as salt: HCl) (hydrate or solvate) [Example 32a, 5-Fluoro-3-{(1,4-cis)-4-[4-(5-fluoro-2,3-dihydro-benzofuran-7-yl)-piperazin-1-yl]-cyclohexyl}-1H-indole] | 196 to 198 °C
15 | Fc1cc2c(c(N3CCN([C@H]4CC[C@H](c5c[nH]c6ccc(F)cc65)CC4)CC3)c1)OCC2 (as salt: HCl) (hydrate or solvate) [Example 32b, 5-Fluoro-3-{(1,4-trans)-4-[4-(5-fluoro-2,3-dihydro-benzofuran-7-yl)-piperazin-1-yl]-cyclohexyl}-1H-indole] | 303 to 305 °C
16 | N#Cc1ccc2[nH]cc([C@H]3CC[C@@H](N4CCN(c5cc(F)cc6c5OCC6)CC4)CC3)c2c1 (as salt: HCl) (hydrate or solvate) [Example 33a, 3-{(1,4-cis)-4-[4-(5-Fluoro-2,3-dihydro-benzofuran-7-yl)-piperazin-1-yl]-cyclohexyl}-1H-indole-5-carbonitrile] | 298 to 301 °C
17 | N#Cc1ccc2[nH]cc([C@H]3CC[C@H](N4CCN(c5cc(F)cc6c5OCC6)CC4)CC3)c2c1 (as salt: HCl) (hydrate or solvate) [Example 33b, 3-{(1,4-trans)-4-[4-(5-Fluoro-2,3-dihydro-benzofuran-7-yl)-piperazin-1-yl]-cyclohexyl}-1H-indole-5-carbonitrile] | 330 to 331 °C
18 | N#Cc1ccc2[nH]cc([C@H]3CC[C@@H](N4CCN(c5cccc6ccoc56)CC4)CC3)c2c1 (as salt: HCl) (hydrate or solvate) [Example 34a] | 295 to 296 °C
19 | N#Cc1ccc2[nH]cc([C@H]3CC[C@H](N4CCN(c5cccc6ccoc56)CC4)CC3)c2c1 (as salt: HCl) (hydrate or solvate) [Example 34b] | 330 to 331 °C
20 | c1cc(N2CCN([C@H]3CC[C@@H](c4c[nH]c5ccccc54)CC3)CC2)c2cc[nH]c2c1 (as salt: HCl) [Example 1a, 3-[cis-4-[4-(1H-Indol-4-yl)-1-piperazinyl]cyclohexyl]-1H-indole] | 198 to 200 °C
21 | c1cc(N2CCN([C@H]3CC[C@H](c4c[nH]c5ccccc54)CC3)CC2)c2cc[nH]c2c1 (as salt: HCl) [Example 1b, 3-[trans-4-[4-(1H-Indol-4-yl)-1-piperazinyl]cyclohexyl]-1H-indole] | 305 °C (dec.)
22 | Fc1ccc2[nH]cc([C@H]3CC[C@@H](N4CCN(c5cccc6[nH]ccc56)CC4)CC3)c2c1 (as salt: HCl) [Example 3a, 5-Fluoro-3-[cis-4-[4-(1H-indol-4-yl)-1-piperazinyl]cyclohexyl]-1H-indole] | 215 to 217 °C
